Here are results for 37 molecules from US20050197350A1, “Novel quinoline, tetrahydroquinazoline, and pyrimidine derivatives and methods of treatment related to the use thereof” (TAISHO PHARMACEUTICAL CO., LTD., priority 2003, published 2005).

The subject of one assay is MCH receptors. The assay can be described thus: MCH receptor activity class (method not given).
Details: not given
Take `Cc1cc(N[C@H]2CC[C@@H](NC(=O)c3cccc(C(F)(F)F)c3)CC2)nc2ccccc12` [Example 2546, N-{cis-4-[(4-methylquinolin-2-yl)amino]cyclohexyl}-3-(trifluoromethyl)benzamide]: the class was 3.
Regarding `COc1cc(C(=O)N[C@H]2CC[C@@H](Nc3cc(C)c4ccccc4n3)CC2)cc(OC)c1OC` [Example 2552, 3,4,5-trimethoxy-N-{cis-4-[(4-methylquinolin-2-yl)amino]cyclohexyl}benzamide], the class is listed as 1.

Staying with this assay, now noted: MCH receptor activity class 1-3 (percent of control at 10^-7 M or IC50).
Take `Cc1c(Cl)cccc1NC(=O)NC[C@H]1CC[C@@H](Nc2nc3c(c(N(C)C)n2)CCCC3)CC1` [compound 2477]: the class is 2 (Class 2: The value of percent of control at 10^−7 M was from 40% to 60% or the value of IC′50 was from 50 nM to 200 nM.).
Still for that read-out and setting: as for `COc1cc(NC(=S)N[C@H]2CC[C@@H](Nc3nccc(N(C)C)n3)CC2)c(OC)cc1Cl` [compound 2353], the figure is 3 (Class 3 The value of percent of control at 10^−7 M was more than 60% or the value of IC50 was more than 200 nM.); as for `Cc1cc(Br)cc(C)c1NC(=S)N[C@H]1CC[C@@H](Nc2nccc(N(C)C)n2)CC1` [compound 2328, N-(4-bromo-2,6-dimethylphenyl)-N′-(cis-4-{[4-(dimethylamino)pyrimidin-2-yl]amino}cyclohexyl)thiourea], 1 (Class 1: The value of percent of control at 10^−7 M was less than 40% or the value of IC50 was less than 50 nM.); as for `CN(C)c1cc(N[C@H]2CC[C@@H](CNC(=O)Nc3c(Br)cc(F)cc3Br)CC2)nc2ccccc12` [compound 2398], 3 (Class 3 The value of percent of control at 10^−7 M was more than 60% or the value of IC50 was more than 200 nM.).

Staying with this assay, now noted: MCH receptor; class by percent of control at 10^-7 M or IC50.
For `CN(C)c1nc(N[C@H]2CC[C@@H](NC(=S)Nc3cccc(F)c3)CC2)nc2c1CCCC2` [compound 1984], the class is reported as 3 (Class 3 The value of percent of control at 10^−7 M was more than 60% or the value of IC50 was more than 200 nM.).
Still for that read-out and setting: as for `CCOc1ccc2ccccc2c1C(=O)N[C@H]1CC[C@@H](Nc2cc(N(C)C)c3ccccc3n2)CC1` [compound 129], the figure is 3 (Class 3 The value of percent of control at 10^−7 M was more than 60% or the value of IC50 was more than 200 nM.); as for `CC(NC(=S)N[C@H]1CC[C@@H](Nc2nc3c(c(N(C)C)n2)CCCC3)CC1)c1ccc(F)cc1` (relative stereo) [compound 2014], 3 (Class 3 The value of percent of control at 10^−7 M was more than 60% or the value of IC50 was more than 200 nM.).
With `CCCCOC(=O)c1ccccc1NC(=O)N[C@H]1CC[C@@H](Nc2nc3c(c(N(C)C)n2)CCCC3)CC1` [compound 1910], the class was 3 (Class 3 The value of percent of control at 10^−7 M was more than 60% or the value of IC50 was more than 200 nM.).
For `COc1ccc(OC)c(CC(=O)N[C@H]2CC[C@@H](Nc3cc(N(C)C)c4ccccc4n3)CC2)c1` [compound 35], the class is recorded as 3 (Class 3 The value of percent of control at 10^−7 M was more than 60% or the value of IC50 was more than 200 nM.).
For `CN(C)c1nc(N[C@H]2CC[C@@H](NC(=S)NCCCc3ccccc3)CC2)nc2c1CCCC2` [compound 2011], the class was 3 (Class 3 The value of percent of control at 10^−7 M was more than 60% or the value of IC50 was more than 200 nM.).
For the molecule `CN(C)c1nc(N[C@H]2CC[C@@H](NC(=S)NC3CCCCCCCCCCC3)CC2)nc2c1CCCC2` [compound 2026], the class was 3 (Class 3 The value of percent of control at 10^−7 M was more than 60% or the value of IC50 was more than 200 nM.).
On the same count and under the same terms, in the case of `CN(C)c1cc(N[C@H]2CC[C@@H](NC(=O)c3ccc(Cl)cc3)CC2)nc2ccccc12` [compound 25] it was 1 (Class 1: The value of percent of control at 10^−7 M was less than 40% or the value of IC50 was less than 50 nM.); in that of `CN(C)c1cc(N[C@H]2CC[C@@H](NC(=O)COc3ccccc3[N+](=O)[O-])CC2)nc2ccccc12` [compound 113], 3 (Class 3 The value of percent of control at 10^−7 M was more than 60% or the value of IC50 was more than 200 nM.).

The same assay, now with this note: activity class per percent of control at 10^-7 M or IC50.
Consider `CN(C)c1cc(N[C@H]2CC[C@@H](CNCc3ccccc3C#N)CC2)nc2ccccc12` [compound 1147], for which the class is given as 3 (Class 3 The value of percent of control at 10^−7 M was more than 60% or the value of IC50 was more than 200 nM.).
As to `CN(C)c1nc(N[C@H]2CC[C@@H](NC(=O)c3csc([N+](=O)[O-])c3)CC2)nc2c1CCCC2` [compound 1043], the class is on record as 1 (Class 1: The value of percent of control at 10^−7 M was less than 40% or the value of IC50 was less than 50 nM.).

Staying with this assay, now noted: class by percent of control at 10^-7 M or IC50.
Turning to `COc1cccc(NC(=O)N[C@H]2CC[C@@H](Nc3nc4c(c(N(C)C)n3)CCCC4)CC2)c1` [compound 1834], the class is 3 (Class 3 The value of percent of control at 10^−7 M was more than 60% or the value of IC50 was more than 200 nM.).
Regarding `CN(C)c1nc(N[C@H]2CC[C@@H](CNC(=O)c3cccc(Cl)c3F)CC2)nc2c1CCCC2` [compound 621], the class is reported as 3 (Class 3 The value of percent of control at 10^−7 M was more than 60% or the value of IC50 was more than 200 nM.).
Regarding `CN(C)c1nc(N[C@H]2CC[C@@H](NC(=O)Nc3cccc([N+](=O)[O-])c3)CC2)nc2c1CCCC2` [compound 1874], the class is reported as 3 (Class 3 The value of percent of control at 10^−7 M was more than 60% or the value of IC50 was more than 200 nM.).
With `CN(C)c1ccnc(N[C@H]2CC[C@@H](NC(=O)c3ccc(Cl)s3)CC2)n1` [compound 816], the class is given as 3 (Class 3 The value of percent of control at 10^−7 M was more than 60% or the value of IC50 was more than 200 nM.).
Consider `COc1cc(CC(=O)N[C@H]2CC[C@@H](Nc3nccc(N(C)C)n3)CC2)cc(OC)c1O` [compound 839], for which the class was 3 (Class 3 The value of percent of control at 10^−7 M was more than 60% or the value of IC50 was more than 200 nM.).
Take `COc1cccc(OC)c1CN[C@H]1CC[C@@H](Nc2nc3c(c(N(C)C)n2)CCCC3)CC1` [compound 1326]: the class was 3 (Class 3 The value of percent of control at 10^−7 M was more than 60% or the value of IC50 was more than 200 nM.).
On to `CN(C)c1nc(N[C@H]2CC[C@@H](CNCc3ccccc3C#N)CC2)nc2c1CCCC2` [compound 1389], for which the class is recorded as 3 (Class 3 The value of percent of control at 10^−7 M was more than 60% or the value of IC50 was more than 200 nM.).
The same measure, in the same setting: in the case of `CN(C)c1ccnc(N[C@H]2CC[C@@H](NC(=O)c3cccc(Cl)c3)CC2)n1` [compound 242] it was 1 (Class 1: The value of percent of control at 10^−7 M was less than 40% or the value of IC50 was less than 50 nM.); in that of `Cc1onc(-c2ccccc2)c1NC(=S)N[C@H]1CC[C@@H](Nc2nc3c(c(N(C)C)n2)CCCC3)CC1` [compound 1789], 3 (Class 3 The value of percent of control at 10^−7 M was more than 60% or the value of IC50 was more than 200 nM.); in that of `Cc1sc(-c2ccccc2)nc1CC(=O)N[C@H]1CC[C@@H](Nc2nccc(N(C)C)n2)CC1` [compound 851, N-(cis-4-{[4-(dimethylamino)pyrimidin-2-yl]amino}cyclohexyl)-2-(5-methyl-2-phenyl-1,3-thiazol-4-yl)acetamide], 2 (Class 2: The value of percent of control at 10^−7 M was from 40% to 60% or the value of IC′50 was from 50 nM to 200 nM.).
On the same count and under the same terms, in the case of `CN(C)c1nc(N[C@H]2CC[C@@H](CNCc3ccc4c(c3)OCO4)CC2)nc2c1CCCC2` [compound 1424] it was 3 (Class 3 The value of percent of control at 10^−7 M was more than 60% or the value of IC50 was more than 200 nM.); in that of `COc1cccc(CNC[C@H]2CC[C@@H](Nc3cc(N(C)C)c4ccccc4n3)CC2)c1O` [compound 1196], 3 (Class 3 The value of percent of control at 10^−7 M was more than 60% or the value of IC50 was more than 200 nM.); in that of `CN(C)c1ccnc(N[C@H]2CC[C@@H](CNCc3ccc(Cl)cc3)CC2)n1` [compound 1270], 3 (Class 3 The value of percent of control at 10^−7 M was more than 60% or the value of IC50 was more than 200 nM.).
Turning to `Cc1ccc(S(=O)(=O)n2ccc(C(=O)N[C@H]3CC[C@@H](Nc4cc(N(C)C)c5ccccc5n4)CC3)c2)cc1` [compound 762], the class is given as 3 (Class 3 The value of percent of control at 10^−7 M was more than 60% or the value of IC50 was more than 200 nM.).
Same read-out and setting: as for `CN(C)c1ccnc(N[C@H]2CC[C@@H](NC(=O)C3CC(=O)c4ccccc43)CC2)n1` (relative stereo) [compound 823], the figure is 3 (Class 3 The value of percent of control at 10^−7 M was more than 60% or the value of IC50 was more than 200 nM.); as for `CN(C)c1ccnc(N[C@H]2CC[C@@H](NC(=O)c3cccs3)CC2)n1` [compound 270], 3 (Class 3 The value of percent of control at 10^−7 M was more than 60% or the value of IC50 was more than 200 nM.).
Still for that read-out and setting: as for `COc1cc(C(=O)NC[C@H]2CC[C@@H](Nc3cc(N(C)C)c4ccccc4n3)CC2)ccc1[N+](=O)[O-]` [compound 804, N-[(cis-4-{[4-(dimethylamino)quinolin-2-yl]amino}cyclohexyl)methyl]-3-methoxy-4-nitrobenzamide], the figure is 3 (Class 3 The value of percent of control at 10^−7 M was more than 60% or the value of IC50 was more than 200 nM.).
The same measure, in the same setting: as for `CCOc1ccc2ccccc2c1C(=O)N[C@H]1CC[C@@H](Nc2nccc(N(C)C)n2)CC1` [compound 347], the figure is 3 (Class 3 The value of percent of control at 10^−7 M was more than 60% or the value of IC50 was more than 200 nM.).

The same assay, now with this note: class by percent of control at 10^−7 M or IC50.
Regarding `Cc1cc(N(C)C)nc(N[C@H]2CC[C@@H](CNC(=O)c3ccc(F)c(C)c3)CC2)n1` [compound 2756], the class is 3 (Class 3 The value of percent of control at 10^−7 M was more than 60% or the value of IC50 was more than 200 nM.).
On the same count and under the same terms, as for `Cc1cnc(N[C@H]2CC[C@@H](CNC(=O)c3ccc(C#N)cc3)CC2)nc1N(C)C` [compound 2701], the figure is 2 (Class 2: The value of percent of control at 10^−7 M was from 40% to 60% or the value of IC′50 was from 50 nM to 200 nM.).
